Earlier results on 1 compound are cited in US12036548B2, “Organs-on-chips as a platform for epigenetics discovery” (EMULATE, INC., priority 2018, dated 2024).

For this data set the following is noted: normal nutritional iodine supply.

`II` [iodine]: the “fraction taken up and stored by a normally functioning thyroid gland” value is given as 15-30%.
